Reference: publication PMC11904993, “Humanized Candida and NanoBiT Assays Expedite Discovery of Bdf1 Bromodomain Inhibitors With Antifungal Potential” (Advanced Science, 2025)
Where “and” joins values, the source holds several entries; their conditions need not be identical. Equal entries are not always repeated. *1 amine or outer side, *2 acyl side, *3 side chain or, on linkers, in order; H or OH if unused. Where a SMILES comes first, the peptide text is derived from it. Bridges are numbered along the chain shown (N, C = ends). [ ]: non-standard residue; d: D form. The star is where a group is joined. pTerphenylCO(4''-OnC5H11) = CCCCCOc1ccc(-c2ccc(-c3ccc(C(=O)*)cc3)cc2)cc1; Orn(4R-OH,5R-OH) = O=C([C@H](C[C@@H](O)[C@@H](O)N[*:3])N[*:1])[*:2]; hTyr(3S-OH,4S-OH) = N[C@H](C(=O)O)[C@H](O)[C@@H](O)c1ccc(O)cc1; Pro(3S-OH,4S-Me) = C[C@H]1CN[C@H](C(=O)O)[C@H]1O; Hyp = O=C(O)[C@@H]1C[C@@H](O)CN1

Legend:
[1] = tested on: C. glabrata strains (WT, pdr1∆ or PDR1 rescue); test: Growth assays to assess compound efflux; format: cell-based; conditions: for growth relative to Solvent = 100 (Figure S10B): compound 50 µM, three replicates
Protocol: Cells from a single colony were diluted in 0.85% NaCl before being counted using a Neubauer chamber. […] The effect of fluconazole was tested by titration on these strains under similar conditions.

[2] = tested on: C. glabrata expressing humanized Bdf1 (Brd4 BDs); test: Growth inhibition in liquid media, humanized C. glabrata strains; conditions: 50 µM, Exp 1-3
Protocol: (§2) Growth on Liquid Media with C. glabrata Lab Strains: Cells were grown at 30 °C in SC+M+C‐U medium (SC medium with 5 mM methionine, 0.25 mM cysteine, without uracil) to an OD600 of 0.5–0.8. […] Plates were incubated at 30 °C and OD600 was measured using a Multiskan FC Microplate Photometer (Thermo Fisher).

[3] = tested on: C. glabrata strains expressing WT and mutant Bdf1; test: Growth inhibition in liquid media, C. glabrata lab strains; conditions: Exp 1-3; for %Growth: 50 µM, WT BDF1-flag; for OD at 600 nm: Figure S4B
Protocol: as §2

[4] = molecular target: CgBdf1 BD1 (Candida glabrata, UniProt Q6FWV7); test: HTRF assay, inhibition of H4ac4 peptide binding; set-up: species or system C. glabrata; conditions: Fig 1D/2A original data; single experiments Exp1-3
Chain of CgBdf1 BD1 (Q6FWV7 entry or part of it): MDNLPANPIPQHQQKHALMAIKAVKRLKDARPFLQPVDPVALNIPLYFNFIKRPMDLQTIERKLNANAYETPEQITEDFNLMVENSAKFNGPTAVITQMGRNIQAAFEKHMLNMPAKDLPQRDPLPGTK

[5] = molecular target: CgBdf1 BD2 (Candida glabrata, UniProt Q6FWV7); test: biochemical; format: binding, C. glabrata; conditions: Fig 1D/2A original data; single experiments Exp1-3
Chain of CgBdf1 BD2 (Q6FWV7 entry or part of it): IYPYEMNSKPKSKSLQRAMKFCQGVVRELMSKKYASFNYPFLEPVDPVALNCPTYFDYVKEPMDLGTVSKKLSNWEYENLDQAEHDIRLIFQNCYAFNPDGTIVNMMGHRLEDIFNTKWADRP

[6] = molecular target: S. cerevisiae histone H2A variant H2A.Z fused to LgBiT (UniProt Q12692); test: NanoBiT assay in live S. cerevisiae cells; conditions: parent: est. 1.0; read off a plot
[7] = tested on: C. albicans expressing humanized Bdf1; test: Galleria fungal infection model, humanized strain; format: in vivo, Galleria mellonella; set-up: key to survival event of one larva (1 = death 0 = no death): 1 = death; 0 = no death; conditions: Figure 6C; Bdf1-hBD* strain; Time 8 hours
Protocol: (§1) Galleria mellonella larvae were purchased from Decathlon (La Tronche, France). They were selected in the late larval stages weighing between 300 and 400 mg. Groups of 10 larvae were injected into the right or left last pro‐leg with 10 µl of either PBS, C. albicans suspensions or antifungal drug using an insulin syringe (BDUltra‐Fine 0.3 ml). C. albicans suspensions of the WT and humanized Bdf1 strains were adjusted to 10^6 cells larva^−1. Antifungal drugs (anidulafungin 5 mg kg^−1 or I‐BET726 66 or 44 mg kg^−1) were injected once 30 min before fungal infection. An infected control group received the C. albicans inoculum and the solvent of the drug. A non‐infected control group received only PBS. After inoculation, larvae were placed in Petri dishes and incubated in the dark at 37 °C. The larvae were monitored for 5 days, and survival outcome was determined. For experiments performed at the lower (44 mg kg^−1) dose of IBET‐726, the difference in protection against infection with humanized versus WT C. albicans strains was more evident using the survival data at 40 h rather than at 100 h post‐infection. Larvae were considered dead when no response was observed following touch. All experiments were performed at least 3 times independently. The significance of survival was assessed by a Log‐rank (Mantel‐Cox) test in GraphPad Prism 10.

[8] = tested on: C. albicans expressing WT Bdf1; test: Galleria fungal infection model, WT strain; format: in vivo, Galleria mellonella; set-up: key to survival event of one larva (1 = death 0 = no death): 1 = death; 0 = no death; conditions: Figure 6B
Protocol: as §1

Molecule	growth relative to Solvent = 100 (Figure S10B) ([1]; PDR1 Rescue)	growth relative to Solvent = 100 (Figure S10B) ([1]; WT)	growth relative to Solvent = 100 (Figure S10B) ([1]; pdr1∆)	%Growth ([2]; Fig 3E, BDF1-hBD1-flag)	%Growth ([2]; Fig 3E, BDF1-hBD2-flag)	%Growth ([2]; Fig 3E, humanized BDF1-flag)	%Growth ([3]; Fig 3E)	also measured
COc1cc(OC)c2c(=O)[nH]c(-c3cc(C)c(OCCO)c(C)c3)nc2c1 [RVX208]	70.1855 and 71.3614 and 82.784	80.2726 and 64.9447 and 62.8512	66.409 and 64.9859 and 67.3918	95% and 91% and 88%	94% and 82% and 93%	80% and 88% and 77%	91% and 96%	–
Cc1sc2c(c1C)C(c1ccc(Cl)cc1)=N[C@@H](CC(=O)OC(C)(C)C)c1nnc(C)n1-2 [JQ1, reference compound]	–	–	–	83% and 74% and 78%	91% and 86%	46% and 40% and 43%	113% and 106% and 114%	pIC50 CgBD1 [4]: 5.18 and 5.05 and 5.03; activity against PDR1 deletion strain versus WT/rescue ([1]; 50 µM (I-BET726 1 µM), 20 h): increased efficacy; pIC50 CgBD2 [5]: 6.15 and 6.10 and 6.13; %Growth ([2]; Fig 3D, humanized BDF1-flag): 46.0% and 39.6% and 43.2%; %Growth ([3]; Fig 3D): 112.7% and 106.1% and 114.4%; OD at 600 nm ([3]; WT BDF1 strain): 0.392 and 0.386 and 0.385; OD at 600 nm ([3]; bdf1-bd1Δ strain): 0.328 and 0.347 and 0.329; OD at 600 nm ([3]; bdf1-bd2Δ strain): 0.195 and 0.225 and 0.183
C. glabrata Bdf1-SmBiT expressed in S. cerevisiae Y166F; Y343F	–	–	–	–	–	–	–	ratio to parent [6]: 0.27
CCNC(=O)c1cc2c(-c3cc(C(C)(C)O)ccc3Oc3c(C)cc(F)cc3C)cn(C)c(=O)c2[nH]1 [ABBV744]	73.7317 and 83.5862 and 73.3043	66.394 and 67.598 and 72.0455	59.2642 and 64.761 and 73.9837	90% and 85% and 80%	38% and 32% and 37%	41% and 39%	90% and 89% and 91%	–
CCCCCOc1ccc(-c2ccc(-c3ccc(C(=O)N[C@H]4C[C@@H](O)[C@@H](O)NC(=O)[C@@H]5[C@@H](O)[C@@H](C)CN5C(=O)[C@H]([C@@H](C)O)NC(=O)[C@H]([C@H](O)[C@@H](O)c5ccc(O)cc5)NC(=O)[C@@H]5C[C@@H](O)CN5C(=O)[C@H]([C@@H](C)O)NC4=O)cc3)cc2)cc1 [anidulafungin] ({pTerphenylCO(4''-OnC5H11)}-[Orn(4R-OH,5R-OH)]T[Hyp][hTyr(3S-OH,4S-OH)]T[Pro(3S-OH,4S-Me)]; lactam 1-C)	–	–	–	–	–	–	–	survival event of one larva (1 = death 0 = no death) [7]: 1
CCCCCOc1ccc(-c2ccc(-c3ccc(C(=O)N[C@H]4C[C@@H](O)[C@@H](O)NC(=O)[C@@H]5[C@@H](O)[C@@H](C)CN5C(=O)[C@H]([C@@H](C)O)NC(=O)[C@H]([C@H](O)[C@@H](O)c5ccc(O)cc5)NC(=O)[C@@H]5C[C@@H](O)CN5C(=O)[C@H]([C@@H](C)O)NC4=O)cc3)cc2)cc1 [anidula-fungin] ({pTerphenylCO(4''-OnC5H11)}-[Orn(4R-OH,5R-OH)]T[Hyp][hTyr(3S-OH,4S-OH)]T[Pro(3S-OH,4S-Me)]; lactam 1-C)	–	–	–	–	–	–	–	survival event of one larva (1 = death 0 = no death) ([8]; Time 10 hours): 1; survival event of one larva (1 = death 0 = no death) ([8]; Time 35 hours): 1; survival event of one larva (1 = death 0 = no death) ([8]; Time 50 hours): 1
